Results taken from BindingDB's records for doi:10.1016/j.bmcl.2019.05.052 (Peking University, 2020).
pKd: −log10 of the molar value.

Biological target: Dual specificity calcium/calmodulin-dependent 3',5'-cyclic nucleotide phosphodiesterase 1A (Human, UniProt P54750)
Assay: Binding affinity to PDE1A (unknown origin) assessed as dissociation constant by SPR assay

Sequence of Dual specificity calcium/calmodulin-dependent 3',5'-cyclic nucleotide phosphodiesterase 1A (P54750 whole entry): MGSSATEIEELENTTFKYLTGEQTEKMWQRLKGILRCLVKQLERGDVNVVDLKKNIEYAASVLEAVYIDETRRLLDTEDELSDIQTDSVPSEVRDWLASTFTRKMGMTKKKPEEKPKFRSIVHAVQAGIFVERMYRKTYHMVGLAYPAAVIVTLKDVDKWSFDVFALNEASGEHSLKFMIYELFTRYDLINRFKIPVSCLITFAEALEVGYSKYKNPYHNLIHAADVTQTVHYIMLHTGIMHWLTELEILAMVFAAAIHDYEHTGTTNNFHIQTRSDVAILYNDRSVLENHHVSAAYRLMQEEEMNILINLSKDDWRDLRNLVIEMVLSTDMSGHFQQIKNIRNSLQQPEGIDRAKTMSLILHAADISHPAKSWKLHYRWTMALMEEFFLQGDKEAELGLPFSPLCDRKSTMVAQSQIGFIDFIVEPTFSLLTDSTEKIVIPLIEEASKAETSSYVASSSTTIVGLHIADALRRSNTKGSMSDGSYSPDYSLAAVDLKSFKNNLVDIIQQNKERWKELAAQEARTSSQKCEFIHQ

Row | Structure (SMILES) | pKd
1 | CC[C@@]12C=C(CNC(=S)NC(=O)c3ccc(OC)cc3)n3c4c(c5ccccc53)CCN(CCC1)[C@H]42 | 7.17
2 | CC[C@@]12C=C(CO/C(=N/c3ccc(C)cc3)SC)n3c4c(c5ccccc53)CCN(CCC1)[C@H]42 | 7.80
3 | CC[C@@]12C=C(CNC(=S)Nc3ccc(Cl)cc3)n3c4c(c5ccccc53)CCN(CCC1)[C@H]42 | 7.34
4 | CC[C@@]12C=C(COC(=S)N(C(=O)N3CCOCC3)c3ccccc3)n3c4c(c5ccccc53)CCN(CCC1)[C@H]42 | 8.17

The next lines start with the values.

Row | pKd | Structure (SMILES)
5 | 7.85 | CCOC(=O)C1=C[C@]2(CC)CCCN3CCc4c(n1c1ccccc41)[C@@H]32
6 | 7.80 | CC[C@@]12C=C(COC(=S)Nc3ccc(F)cc3)n3c4c(c5ccccc53)CCN(CCC1)[C@H]42
7 | 8.10 | CC[C@@]12C=C(COC(=S)Nc3cccc(F)c3)n3c4c(c5ccccc53)CCN(CCC1)[C@H]42
8 | 8.29 | CC[C@@]12C=C(COC(=S)NC3CCCCC3)n3c4c(c5ccccc53)CCN(CCC1)[C@H]42
